One experiment has as its system HDAC isoforms. In words: HDAC inhibition profiled over several HDAC isoforms (experimental). The experiment is classed as biochemical, human. Conditions: range of pIC50 over the profiled HDAC isoforms.
The target in another experiment is HDAC1 (Homo sapiens, UniProt Q13547). Conditions: cited from earlier work.
A further experiment has as its target HDAC2 (Homo sapiens, UniProt Q92769). The note with it: cited from earlier work.
A further experiment addresses HDAC5 (Homo sapiens, UniProt Q9UQL6). The note with it: against HDAC5; cited from earlier work.
For the next experiment, the target named is T1, HDAC6 (Homo sapiens, UniProt Q9UBN7).
T1 sequence (Q9UBN7 1-1215): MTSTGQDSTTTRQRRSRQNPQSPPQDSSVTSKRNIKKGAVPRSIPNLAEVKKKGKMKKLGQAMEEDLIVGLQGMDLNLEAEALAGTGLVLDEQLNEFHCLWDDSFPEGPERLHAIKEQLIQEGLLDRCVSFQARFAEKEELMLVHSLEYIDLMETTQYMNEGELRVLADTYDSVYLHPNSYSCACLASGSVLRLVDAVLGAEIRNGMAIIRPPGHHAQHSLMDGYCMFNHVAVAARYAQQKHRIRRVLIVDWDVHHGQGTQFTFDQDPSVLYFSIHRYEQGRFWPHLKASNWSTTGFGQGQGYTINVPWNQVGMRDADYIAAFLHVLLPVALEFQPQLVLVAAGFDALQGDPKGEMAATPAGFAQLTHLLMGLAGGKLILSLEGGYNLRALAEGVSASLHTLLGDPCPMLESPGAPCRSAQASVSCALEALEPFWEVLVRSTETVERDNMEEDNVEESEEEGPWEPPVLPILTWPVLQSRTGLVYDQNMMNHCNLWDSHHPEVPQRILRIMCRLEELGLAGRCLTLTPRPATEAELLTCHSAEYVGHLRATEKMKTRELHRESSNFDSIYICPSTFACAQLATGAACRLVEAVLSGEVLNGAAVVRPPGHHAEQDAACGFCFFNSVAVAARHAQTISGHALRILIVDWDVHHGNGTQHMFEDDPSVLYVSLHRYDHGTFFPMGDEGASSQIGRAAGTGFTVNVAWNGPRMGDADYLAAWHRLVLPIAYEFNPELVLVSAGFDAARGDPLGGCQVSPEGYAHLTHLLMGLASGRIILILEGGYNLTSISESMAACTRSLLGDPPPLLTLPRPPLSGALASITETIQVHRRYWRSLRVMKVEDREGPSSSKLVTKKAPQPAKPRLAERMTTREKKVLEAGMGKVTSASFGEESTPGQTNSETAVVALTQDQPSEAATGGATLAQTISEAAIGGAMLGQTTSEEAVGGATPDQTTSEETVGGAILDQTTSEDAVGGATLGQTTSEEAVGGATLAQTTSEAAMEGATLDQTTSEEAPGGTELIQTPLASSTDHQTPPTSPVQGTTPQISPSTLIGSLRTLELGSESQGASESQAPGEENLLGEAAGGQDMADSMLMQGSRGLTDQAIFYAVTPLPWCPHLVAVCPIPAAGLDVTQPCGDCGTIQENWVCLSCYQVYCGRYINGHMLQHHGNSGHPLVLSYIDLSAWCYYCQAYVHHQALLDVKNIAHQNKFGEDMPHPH
The note with it: cited from earlier work; for pIC50exp: HDAC6 experimental activity assigned; for pIC50: training set composition.

The next experiment concerns the target T2, HDAC7 (Homo sapiens, UniProt Q8WUI4).
T2 sequence (Q8WUI4 1-952): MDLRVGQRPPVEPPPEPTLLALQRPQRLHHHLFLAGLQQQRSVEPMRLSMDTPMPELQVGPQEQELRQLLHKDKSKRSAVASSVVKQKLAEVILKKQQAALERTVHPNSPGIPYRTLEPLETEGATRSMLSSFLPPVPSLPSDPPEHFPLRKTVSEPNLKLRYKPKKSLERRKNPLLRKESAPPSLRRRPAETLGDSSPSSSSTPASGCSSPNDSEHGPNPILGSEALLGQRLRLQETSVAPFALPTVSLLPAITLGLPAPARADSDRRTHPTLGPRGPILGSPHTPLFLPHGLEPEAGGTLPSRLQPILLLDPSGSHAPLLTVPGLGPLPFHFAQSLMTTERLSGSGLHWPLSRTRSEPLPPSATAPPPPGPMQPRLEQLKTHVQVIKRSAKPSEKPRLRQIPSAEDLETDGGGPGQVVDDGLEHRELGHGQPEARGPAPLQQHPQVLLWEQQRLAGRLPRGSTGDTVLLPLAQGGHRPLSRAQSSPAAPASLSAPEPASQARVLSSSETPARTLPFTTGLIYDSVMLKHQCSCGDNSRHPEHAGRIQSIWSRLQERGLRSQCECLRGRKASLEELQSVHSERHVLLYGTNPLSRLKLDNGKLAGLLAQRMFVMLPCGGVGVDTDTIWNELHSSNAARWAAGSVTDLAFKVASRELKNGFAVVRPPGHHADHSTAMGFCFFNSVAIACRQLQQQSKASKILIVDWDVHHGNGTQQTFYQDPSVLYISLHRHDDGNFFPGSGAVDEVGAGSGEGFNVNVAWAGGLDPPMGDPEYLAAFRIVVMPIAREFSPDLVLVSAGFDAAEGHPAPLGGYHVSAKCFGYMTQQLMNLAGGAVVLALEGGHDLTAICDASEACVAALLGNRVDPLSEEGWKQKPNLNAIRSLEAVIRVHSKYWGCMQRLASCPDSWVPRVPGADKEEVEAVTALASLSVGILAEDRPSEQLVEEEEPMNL
Conditions: cited from earlier work.

Another experiment deals with T3, HDAC8 (Homo sapiens, UniProt Q9BY41).
T3 sequence (Q9BY41 1-377): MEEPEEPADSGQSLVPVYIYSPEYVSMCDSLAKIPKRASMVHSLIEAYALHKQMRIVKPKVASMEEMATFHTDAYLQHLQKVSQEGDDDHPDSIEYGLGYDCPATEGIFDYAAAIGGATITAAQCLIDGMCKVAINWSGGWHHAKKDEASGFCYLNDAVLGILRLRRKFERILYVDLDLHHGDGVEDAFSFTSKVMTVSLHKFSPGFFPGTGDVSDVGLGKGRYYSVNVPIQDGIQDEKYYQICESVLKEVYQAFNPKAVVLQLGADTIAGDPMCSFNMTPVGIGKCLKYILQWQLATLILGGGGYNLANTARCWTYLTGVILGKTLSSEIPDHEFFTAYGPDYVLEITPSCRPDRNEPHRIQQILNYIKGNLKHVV
The note with it: cited from earlier work.

Setting [1] is: training set, read-out: HDACs inhibitory activities IC50.

Like-named read-outs stand apart in the source and are kept apart here.

HDAC1, sequence (Q13547 whole entry): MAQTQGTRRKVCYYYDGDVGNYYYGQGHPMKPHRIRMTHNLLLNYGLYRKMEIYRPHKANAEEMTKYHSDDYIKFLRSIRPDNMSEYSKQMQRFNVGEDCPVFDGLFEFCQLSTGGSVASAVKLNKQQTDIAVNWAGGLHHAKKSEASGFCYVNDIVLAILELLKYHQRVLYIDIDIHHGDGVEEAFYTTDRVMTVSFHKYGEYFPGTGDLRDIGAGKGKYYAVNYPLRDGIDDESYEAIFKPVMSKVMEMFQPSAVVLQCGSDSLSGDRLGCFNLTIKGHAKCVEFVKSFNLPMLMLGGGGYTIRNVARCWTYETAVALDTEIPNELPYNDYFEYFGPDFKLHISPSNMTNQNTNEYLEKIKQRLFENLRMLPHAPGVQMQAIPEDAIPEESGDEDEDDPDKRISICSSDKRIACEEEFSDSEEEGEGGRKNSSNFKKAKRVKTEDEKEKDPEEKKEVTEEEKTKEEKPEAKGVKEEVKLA
HDAC2, sequence (Q92769 whole entry): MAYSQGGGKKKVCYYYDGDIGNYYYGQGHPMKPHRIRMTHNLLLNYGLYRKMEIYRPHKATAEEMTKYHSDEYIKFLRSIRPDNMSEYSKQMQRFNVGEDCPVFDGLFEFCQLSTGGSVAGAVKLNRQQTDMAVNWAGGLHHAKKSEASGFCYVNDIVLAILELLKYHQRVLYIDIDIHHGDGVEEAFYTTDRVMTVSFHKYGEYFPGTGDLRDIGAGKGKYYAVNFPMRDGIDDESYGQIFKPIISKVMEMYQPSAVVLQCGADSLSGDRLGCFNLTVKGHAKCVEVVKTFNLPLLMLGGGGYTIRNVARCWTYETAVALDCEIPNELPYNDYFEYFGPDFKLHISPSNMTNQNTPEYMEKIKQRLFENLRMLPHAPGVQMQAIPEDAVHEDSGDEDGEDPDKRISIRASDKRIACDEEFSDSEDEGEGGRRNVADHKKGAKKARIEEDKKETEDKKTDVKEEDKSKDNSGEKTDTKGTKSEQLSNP
HDAC5, sequence (Q9UQL6 whole entry): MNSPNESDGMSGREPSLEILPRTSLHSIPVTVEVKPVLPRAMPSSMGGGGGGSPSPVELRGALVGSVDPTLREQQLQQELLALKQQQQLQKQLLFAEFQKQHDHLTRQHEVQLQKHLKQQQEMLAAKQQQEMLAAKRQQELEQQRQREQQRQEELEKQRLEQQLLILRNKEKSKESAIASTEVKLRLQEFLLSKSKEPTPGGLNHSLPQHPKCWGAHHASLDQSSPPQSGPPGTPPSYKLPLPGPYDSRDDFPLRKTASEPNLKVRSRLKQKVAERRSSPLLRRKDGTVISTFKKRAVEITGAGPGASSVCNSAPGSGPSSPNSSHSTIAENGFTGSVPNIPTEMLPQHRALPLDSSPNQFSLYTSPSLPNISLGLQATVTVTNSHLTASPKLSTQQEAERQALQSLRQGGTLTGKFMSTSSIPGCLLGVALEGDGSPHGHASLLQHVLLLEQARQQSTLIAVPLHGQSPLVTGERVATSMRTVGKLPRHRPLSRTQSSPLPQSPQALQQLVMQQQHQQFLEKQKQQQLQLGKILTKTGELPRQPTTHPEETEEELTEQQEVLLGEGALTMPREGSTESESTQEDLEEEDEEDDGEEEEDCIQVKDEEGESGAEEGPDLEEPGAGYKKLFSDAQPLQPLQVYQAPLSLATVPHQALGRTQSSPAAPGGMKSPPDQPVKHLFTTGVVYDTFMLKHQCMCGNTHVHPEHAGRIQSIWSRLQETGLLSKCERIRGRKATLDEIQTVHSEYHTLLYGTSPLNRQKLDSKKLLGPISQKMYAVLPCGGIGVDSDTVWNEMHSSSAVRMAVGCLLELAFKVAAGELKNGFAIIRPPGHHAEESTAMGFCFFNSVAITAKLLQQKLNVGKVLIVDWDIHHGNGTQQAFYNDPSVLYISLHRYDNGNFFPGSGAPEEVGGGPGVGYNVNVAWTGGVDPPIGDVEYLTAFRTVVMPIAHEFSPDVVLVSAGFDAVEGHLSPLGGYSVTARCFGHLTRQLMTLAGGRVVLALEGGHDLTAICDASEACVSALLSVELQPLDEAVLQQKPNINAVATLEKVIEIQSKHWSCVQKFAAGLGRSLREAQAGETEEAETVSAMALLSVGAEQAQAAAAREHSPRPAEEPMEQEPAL

The term pIC50 denotes the IC50 on a negative log10 scale, so that one unit is a factor of ten. Broadly, the IC50 is the concentration that inhibits the measured activity by half. `CCCC(=O)O` [NABUT, Butyrate]: the “Bioactivity range (ΔpIC50) DpIC50” value in the experiment on HDAC isoforms came out at 1.95. Further, the pIC50exp at HDAC1 (experimental value of modeled complex) is 3.496; at HDAC6 (HDAC6-1 (histone catalytic domain)), 3; at HDAC6 (HDAC6-2 (tubulin catalytic domain)), 3. In addition, the negative logarithm of the IC50 (pIC50) on HDAC1 (training set composition) was 3.50; at HDAC2 (training set composition), 4.54; at HDAC6 (HDAC6-1), 3.00; on HDAC6 (HDAC6-2), 3.00; on HDAC7 (training set composition), 4.52; at HDAC8 (training set composition), 4.07. The concentration for half-maximal inhibition (IC50) on HDAC1 (setting [1]) was 319 µM; at HDAC2 (setting [1]) it was 28.9 µM; on HDAC6 (HDAC6, training set, read-out: HDACs inhibitory activities IC50) it was 1000 µM; at HDAC7 (setting [1]) it was 30 µM; at HDAC8 (setting [1]), 85.6 µM. Further, the “pIC50 (lower end of training set activity range)” value on HDAC5 was 2.7.

Source of the values: US20160378912A1, “STRUCTURE-BASED MODELING AND TARGET-SELECTIVITY PREDICTION” (EPIGENETX, LLC, priority 2013, published 2016).
